# According to patent publication US7312248B2, “Control of parasites in animals by the use of novel trifluoromethanesulfonanilide oxime ether derivatives” (Schering-Plough Animal Health Corporation, priority 2004, dated 2007):
# Where two headings read alike, the source gives them in different places.
# What was measured:
# Type in all cases: in vivo
# [1] = system: cat flea (Ctenocephalides felis); test: Ctenocephalides felis adulticide assay: dose response (LC50)
# Outline: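 Groups of 15 adult cat fleas, 3–7 days post-emergence, were exposed for 24 h at 25° C and 75% humidity to glass flask bases coated with six serial doses in acetone and dried for 24 h. Mortality was scored at 8 and 24 h, and LC50 was the surface-treatment concentration killing 50%.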
# [2] = system: Brown Dog Tick (Rhipicephalus sanguineus); test: Dose response protocol for topical application on brown dog ticks (LD50); settings: 24 h mortality
# Description: e) Dose response protocol for topical application on brown dog ticks (Rhipicephalus sanguineus): The test determines the level of insecticidal activity of sample compounds or formulations when applied topically on brown dog ticks. Sample compounds were stored prior to use in a freezer (−5±1° C.), unless otherwise specified.
# • Mortality: A tick is defined as dead after it gives no apparent response when touched lightly or gently breathed upon, while observed for 30 seconds. • LD50 (Lethal Dose 50): The dose of a topically applied treatment at which 50% of the dog ticks are killed. • Reference compound: To assess an experimental compound for significant acaricidal activity a single dose level is chosen, which is based upon known results from previous experiments using a commercially available active i.e., a reference compound. The reference compound selected is one in common use, and one that has a similar mode of action against the Brown Dog Tick (i.e., the test species). • Recovery container: A recovery container consists of a 500 ml round plastic container measuring 115 mm diameter and 70 mm height, with a tight fitting lid that has 10 small (˜1 mm) holes inserted for air exchange. A 90 mm diameter piece of filter paper was placed on the bottom of the container and moistened with 1 mL of de-stilled water.
# Adult, mixed sex, Brown Dog Ticks (Rhipicephalus sanguineus) were reared as follows: (i) cultured, (ii) transferred unfed, to a testing laboratory, and (iii) then maintained under controlled conditions (i.e., temp. 18°±2° C., humidity 75±5% RH). The ticks used were selected for vigor prior to testing, i.e., capable of actively walking and responsive to being touched or gently breathed upon.
# During the testing, the temperature was maintained at 25±1° C., and the humidity was ambient. Seven dose levels (concentrations) of sample compound, in the form of serial dilutions in acetone, were derived from a pilot study and covered a range that produced very low to very high mortality. Groups of ten ticks were treated topically (on the abdomen) with 1 μL of a single dose level of the sample compound. Each test was replicated four times, i.e., employing a total of 40 ticks per dose level of each sample compound. As a control, ten ticks were treated with solvent only (acetone) for each test. Following the treatment, the ticks were held in recovery containers maintained under appropriate rearing conditions for 24 hours. Mortality resulting from the treatments was recorded at 24 hours. […] Press, London (1971).]
# [3] = system: Brown Dog Tick (Rhipicephalus sanguineus); test: Rapid screening protocol for topical application on brown dog ticks; settings: 48 h; Laboratory 2 F data
# [4] = system: cat flea (Ctenocephalides felis); test: whole plant or invertebrate; settings: Ctenocephalides felis
# Outline: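 Adult C. felis (3-7 days post-emergence; 15 per flask, at least 4 replicates) exposed to a glass flask base dried 24 h after coating with compound in acetone at 1.26 μg/cm^2. Held at 25±1 °C, 75±5% humidity; mortality (immobile or unable to right) scored at 8, 24 and/or 48 h as percentage.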
# Haemonchus contortus = Haemonchus contortus larvacidal (larval development) assay; settings: 144 h, read-out: Haemonchus contortus LD99
# Outline: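 Nematode eggs placed on agar containing compound (12 two-fold dilutions, final 0.024–50 μg/ml) and left 6 days to develop to L3. LD99 is the lowest concentration inhibiting development of 99% of larvae, derived from well titre (2^n−1) and top concentration.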
# [5] = 24 h, read-out: C. felis Mortality (%) 24 h, 24 h, Laboratory 1 A data
# [6] = 8 h, read-out: C. felis Mortality (%) 8 h, 8 h, Laboratory 2 B data
# [7] = 24 h, read-out: C. felis Mortality (%) 24 h, 24 h, Laboratory 2 B data
structure (smiles),measurement,setting,value
"CC/C(=N\Oc1ccc(F)cc1)c1cc(Cl)ccc1NS(=O)(=O)C(F)(F)F [Compound 130, N-{4-chloro-2-[1-(4-fluorophenoxyimino)propyl]phenyl}trifluoromethanesulfonamide]",C. felis LC50,[1]; Laboratory 1 C data,0.2 μg/cm^2
same,C. felis LC50,[1]; Laboratory 2 D data,0.03 μg/cm^2
same,R. sanguineus LD50,[2],1.5 μg/tick
same,R. sanguineus Mortality (%) 48 h,[3],100%
same,"mortality at 1.26 µg/cm2, 1.26 µg/cm2",[4]; [5],100%
same,IC99,Haemonchus contortus,1.5 µg/mL
"C/C(=N\OCC1CC1)c1cc(Cl)ccc1NS(=O)(=O)C(F)(F)F [Compound 187, N-[4-chloro-2-(1-cyclopropylmethoxyiminoethyl)phenyl]trifluoromethanesulfonamide]",C. felis LC50,[1]; Laboratory 1 C data,0.1 μg/cm^2
same,C. felis LC50,[1]; Laboratory 2 D data,0.005 μg/cm^2
same,R. sanguineus LD50,[2],1.0 μg/tick
same,R. sanguineus Mortality (%) 48 h,[3],100%
same,"mortality at 1.26 µg/cm2, 1.26 µg/cm2",[4]; [6],100%
same,"mortality at 1.26 µg/cm2, 1.26 µg/cm2",[4]; [7],100%
C#CCO/N=C(\CC)c1cc(Cl)ccc1NS(=O)(=O)C(F)(F)F [Compound 208],C. felis LC50,[1]; Laboratory 2 D data,0.02^D μg/cm^2
same,R. sanguineus LD50,[2],0.8 μg/tick
same,R. sanguineus Mortality (%) 48 h,[3],100%
same,"mortality at 1.26 µg/cm2, 1.26 µg/cm2",[4]; [6],100%
same,"mortality at 1.26 µg/cm2, 1.26 µg/cm2",[4]; [7],100%
CC/C(=N\OC1CCCC1)c1cc(Cl)ccc1NS(=O)(=O)C(F)(F)F [Compound 155],C. felis LC50,[1]; Laboratory 1 C data,0.2 μg/cm^2
same,C. felis LC50,[1]; Laboratory 2 D data,0.02 μg/cm^2
same,R. sanguineus LD50,[2],1.5 μg/tick
same,R. sanguineus Mortality (%) 48 h,[3],92%
same,"mortality at 1.26 µg/cm2, 1.26 µg/cm2",[4]; [5],100%
"CC(C)ON=C(c1cc(Cl)ccc1NS(=O)(=O)C(F)(F)F)C1CCCCC1 (racemic) [Compound 210, N-[4-chloro-2-(cyclohexylisopropoxyiminomethyl)phenyl]trifluoromethanesulfonamide]",C. felis LC50,[1]; Laboratory 2 D data,0.1^D μg/cm^2
same,R. sanguineus LD50,[2],2.7 μg/tick
same,R. sanguineus Mortality (%) 48 h,[3],100%
same,"mortality at 1.26 µg/cm2, 1.26 µg/cm2",[4]; [6],66%
same,"mortality at 1.26 µg/cm2, 1.26 µg/cm2",[4]; [7],100%
C/C(=N\OCC(F)(F)F)c1cc(Cl)ccc1NS(=O)(=O)C(F)(F)F [Compound 186],C. felis LC50,[1]; Laboratory 1 C data,0.1 μg/cm^2
same,C. felis LC50,[1]; Laboratory 2 D data,0.006 μg/cm^2
same,R. sanguineus LD50,[2],0.9 μg/tick
same,R. sanguineus Mortality (%) 48 h,[3],100%
same,"mortality at 1.26 µg/cm2, 1.26 µg/cm2",[4]; [6],100%
same,"mortality at 1.26 µg/cm2, 1.26 µg/cm2",[4]; [7],100%
